Assay results taken from ChEMBL document CHEMBL3421611, “New quinolone- and 1,8-naphthyridine-3-carboxamides as selective CB2 receptor agonists with anticancer and immuno-modulatory activity” (Eur J Med Chem, 2015).
Activity calls are given as the source filed them. No cut-off for these calls is given here.

How the values were obtained:
Homo sapiens = organism: Homo sapiens; assay: Selectivity index, ratio of Ki for recombinant human CB1 receptor to Ki for recombinant human CB2 receptor
Cannabinoid receptor 1 [1] = biological target: Cannabinoid receptor 1 (Homo sapiens, UniProt P21554); assay: Displacement of [3H]-CP-55940 from recombinant human CB1 receptor overexpressed in HEK293 cell membranes after 90 mins
Cannabinoid receptor 2 [2] = biological target: T1, Cannabinoid receptor 2 (Homo sapiens, UniProt P34972); assay: Displacement of [3H]-CP-55940 from recombinant human CB2 receptor overexpressed in HEK293 cell membranes after 90 mins
LNCaP [3] = assay: Cytotoxicity against human LNCAP cells expressing CB2 receptor assessed as decrease in cell viability after 72 hrs by neutral red uptake and accumulation assay
Cannabinoid receptor 2 [4] = biological target: T1, Cannabinoid receptor 2; assay: Agonist activity at human CB2 receptor transfected in CHO cell membranes after 90 mins by [35S]-GTPgammaS assay; assay type: functional
PBMC [5] = assay: Immunomodulatory activity in human myelin basic protein activated PBMC isolated from healthy human assessed as inhibition of CD62 expression after 6 days by flow cytometric analysis; assay type: functional, cell-based
PBMC [6] = assay: Immunomodulatory activity in human myelin basic protein activated PBMC isolated from healthy human assessed as decrease in cell proliferation after 6 days by trypan blue staining-based haemocytometric analysis relative to control; assay type: functional
PBMC [7] = assay: Immunomodulatory activity in human myelin basic protein activated PBMC isolated from multiple sclerosis patient assessed as decrease in cell proliferation after 6 days by trypan blue staining-based haemocytometric analysis relative to control; assay type: functional
PBMC [8] = assay: Antiinflammatory activity in human myelin basic protein activated PBMC isolated from multiple sclerosis patient assessed as inhibition of phosphorylated Cox-2 expression at 10 uM after 6 days by Western blot analysis; assay type: functional, cell-based
PBMC [9] = assay: Immunomodulatory activity in human myelin basic protein activated PBMC isolated from healthy human assessed as inhibition of CD69 expression after 6 days by flow cytometric analysis; assay type: functional, cell-based
PBMC [10] = assay: Immunomodulatory activity in human myelin basic protein activated PBMC isolated from healthy human assessed as inhibition of CD54 expression after 6 days by flow cytometric analysis; assay type: functional, cell-based
PBMC [11] = assay: Immunomodulatory activity in human myelin basic protein activated PBMC isolated from multiple sclerosis patient assessed as inhibition of CD54 expression at 10 uM after 6 days by flow cytometric analysis; assay type: functional, cell-based
PBMC [12] = assay: Immunomodulatory activity in human myelin basic protein activated PBMC isolated from multiple sclerosis patient assessed as inhibition of CD25 expression at 10 uM after 6 days by flow cytometric analysis; assay type: functional, cell-based
PBMC [13] = assay: Immunomodulatory activity in human myelin basic protein activated PBMC isolated from healthy human assessed as inhibition of CD49d expression after 6 days by flow cytometric analysis; assay type: functional, cell-based
PBMC [14] = assay: Antiinflammatory activity in human myelin basic protein activated PBMC isolated from healthy human assessed as inhibition of phosphorylated Akt expression after 6 days by Western blot analysis; assay type: functional, cell-based
PBMC [15] = assay: Immunomodulatory activity in human myelin basic protein activated PBMC isolated from healthy human assessed as inhibition of CD25 expression after 6 days by flow cytometric analysis; assay type: functional, cell-based
[16] = biological target: Cannabinoid receptor 1 (Rattus norvegicus) (UniProt P20272); assay: Modulation of CB1 receptor-mediated G protein activity in rat cerebellar membranes at < 10 uM after 90 mins by [35S]-GTPgammaS assay; assay type: functional, cell membranes; conditions: Cerebellum, Membrane
CHO = assay: Effect on mock-transfected CHO cell membranes after 90 mins by [35S]-GTPgammaS assay; assay type: functional; conditions: Cricetulus griseus
LNCaP [17] = assay: Cytotoxicity against human LNCAP cells expressing CB2 receptor assessed as decrease in cell viability at 2 uM after 72 hrs by neutral red uptake and accumulation assay in presence of CB2 receptor antagonist MC21 relative to control; assay type: functional, cell-based
PBMC [18] = assay: Antiinflammatory activity in human myelin basic protein activated PBMC isolated from multiple sclerosis patient assessed as inhibition of phosphorylated Akt expression at 10 uM after 6 days by Western blot analysis; assay type: functional, cell-based
PBMC [19] = assay: Immunomodulatory activity in human myelin basic protein activated PBMC isolated from multiple sclerosis patient assessed as inhibition of CD49d expression at 10 uM after 6 days by flow cytometric analysis; assay type: functional, cell-based
PBMC [20] = assay: Antiinflammatory activity in human myelin basic protein activated PBMC isolated from healthy human assessed as inhibition of phosphorylated Cox-2 expression after 6 days by Western blot analysis; assay type: functional, cell-based
PBMC [21] = assay: Immunomodulatory activity in human myelin basic protein activated PBMC isolated from healthy human assessed as inhibition of CD49d expression at 10 uM after 6 days by flow cytometric analysis; assay type: functional, cell-based
PBMC [22] = assay: Immunomodulatory activity in human myelin basic protein activated PBMC isolated from healthy human assessed as inhibition of CD54 expression at 10 uM after 6 days by flow cytometric analysis; assay type: functional, cell-based
PBMC [23] = assay: Antiinflammatory activity in human myelin basic protein activated PBMC isolated from healthy human assessed as inhibition of phosphorylated Cox-2 expression at 10 uM after 6 days by Western blot analysis; assay type: functional, cell-based
PBMC [24] = assay: Immunomodulatory activity in human myelin basic protein activated PBMC isolated from healthy human assessed as inhibition of CD69 expression at 10 uM after 6 days by flow cytometric analysis; assay type: functional, cell-based
PBMC [25] = assay: Immunomodulatory activity in human myelin basic protein activated PBMC isolated from multiple sclerosis patient assessed as decrease in cell proliferation at 10 uM after 6 days by trypan blue staining-based haemocytometric analysis relative to control; assay type: functional
[26] = biological target: Cannabinoid receptor 1 (Rattus norvegicus) (UniProt P20272); assay: Agonist activity at CB1 receptor in rat cerebellar membranes at 3 uM after 90 mins by [35S]-GTPgammaS assay in presence of CB1 antagonist AM251; assay type: functional, cell membranes; conditions: Cerebellum, Membrane
PBMC [27] = assay: Immunomodulatory activity in human myelin basic protein activated PBMC isolated from healthy human assessed as viable cells at 10 uM after 6 days by trypan blue staining-based haemocytometric analysis; assay type: functional; conditions: 144 h, read-out: Activity
PBMC [28] = assay: Antiinflammatory activity in human myelin basic protein activated PBMC isolated from healthy human assessed as inhibition of phosphorylated Akt expression at 10 uM after 6 days by Western blot analysis; assay type: functional, cell-based
[29] = biological target: Cannabinoid receptor 1 (Rattus norvegicus) (UniProt P20272); assay: Agonist activity at CB1 receptor in rat cerebellar membranes after 90 mins by [35S]-GTPgammaS assay relative to 2-AG; assay type: functional, cell membranes; conditions: Cerebellum, Membrane
PBMC [30] = assay: Immunomodulatory activity in human myelin basic protein activated PBMC isolated from healthy human assessed as inhibition of CD62 expression at 10 uM after 6 days by flow cytometric analysis; assay type: functional, cell-based
LNCaP [31] = assay: Cytotoxicity against human LNCAP cells expressing CB2 receptor assessed as decrease in cell viability at 5 uM after 72 hrs by neutral red uptake and accumulation assay in presence of CB2 receptor antagonist MC21 relative to control; assay type: functional, cell-based
Cannabinoid receptor 1 [32] = biological target: Cannabinoid receptor 1 (Rattus norvegicus, UniProt P20272); assay: Agonist activity at CB1 receptor in rat cerebellar membranes after 90 mins by [35S]-GTPgammaS assay; assay type: functional, cell membranes, Cerebellum, Membrane
PBMC [33] = assay: Immunomodulatory activity in human myelin basic protein activated PBMC isolated from healthy human assessed as inhibition of CD25 expression at 10 uM after 6 days by flow cytometric analysis; assay type: functional, cell-based

T1 sequence (P34972 whole entry): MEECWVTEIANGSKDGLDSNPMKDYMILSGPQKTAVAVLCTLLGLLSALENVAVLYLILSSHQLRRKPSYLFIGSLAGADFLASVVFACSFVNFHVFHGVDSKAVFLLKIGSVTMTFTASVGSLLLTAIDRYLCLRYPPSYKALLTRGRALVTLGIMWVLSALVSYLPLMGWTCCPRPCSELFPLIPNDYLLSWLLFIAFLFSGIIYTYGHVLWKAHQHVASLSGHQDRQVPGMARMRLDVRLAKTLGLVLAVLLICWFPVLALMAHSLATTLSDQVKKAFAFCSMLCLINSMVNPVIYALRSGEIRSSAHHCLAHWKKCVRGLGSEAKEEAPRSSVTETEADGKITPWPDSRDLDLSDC
Sequence of Cannabinoid receptor 1 (Rattus norvegicus) (P20272 whole entry): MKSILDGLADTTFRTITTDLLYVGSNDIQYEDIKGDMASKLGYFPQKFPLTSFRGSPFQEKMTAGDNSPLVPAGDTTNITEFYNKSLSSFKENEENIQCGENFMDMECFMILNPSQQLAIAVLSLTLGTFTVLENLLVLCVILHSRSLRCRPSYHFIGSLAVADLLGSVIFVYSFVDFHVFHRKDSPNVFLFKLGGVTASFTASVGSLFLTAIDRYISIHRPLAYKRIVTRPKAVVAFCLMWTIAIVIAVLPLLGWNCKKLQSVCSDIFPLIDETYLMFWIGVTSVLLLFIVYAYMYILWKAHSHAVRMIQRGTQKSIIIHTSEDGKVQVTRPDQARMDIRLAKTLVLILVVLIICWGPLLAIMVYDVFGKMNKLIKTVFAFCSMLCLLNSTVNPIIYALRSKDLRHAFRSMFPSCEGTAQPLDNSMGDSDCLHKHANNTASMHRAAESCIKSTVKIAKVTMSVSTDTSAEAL
Sequence of Cannabinoid receptor 1 (Homo sapiens, UniProt P21554) (P21554 whole entry): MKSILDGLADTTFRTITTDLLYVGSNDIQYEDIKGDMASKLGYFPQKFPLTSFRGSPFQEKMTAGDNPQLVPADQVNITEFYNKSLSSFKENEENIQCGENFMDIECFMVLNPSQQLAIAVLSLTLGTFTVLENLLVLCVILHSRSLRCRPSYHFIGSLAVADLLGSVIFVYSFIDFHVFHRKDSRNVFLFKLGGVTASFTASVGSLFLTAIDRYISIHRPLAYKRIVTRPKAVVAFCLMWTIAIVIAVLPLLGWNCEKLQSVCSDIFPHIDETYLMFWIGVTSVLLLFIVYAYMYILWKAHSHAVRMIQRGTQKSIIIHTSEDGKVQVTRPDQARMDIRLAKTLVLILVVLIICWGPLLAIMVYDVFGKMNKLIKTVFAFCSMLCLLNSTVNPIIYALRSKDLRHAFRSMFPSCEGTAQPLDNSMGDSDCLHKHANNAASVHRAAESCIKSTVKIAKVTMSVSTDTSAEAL
Sequence of Cannabinoid receptor 1 (Rattus norvegicus, UniProt P20272) (P20272 whole entry): as the sequence (P20272 whole entry) above

How did the Ratio Ki (Homo sapiens) turn out when `CCCCn1c(=O)c(C(=O)NC2CCC(C)CC2)cc2ccccc21` (configuration not stated) was run?
The Ratio Ki was 28.

What about the Ki (Cannabinoid receptor 1 [1]) of the same molecule?
Its Ki is 551 nM.

What about the Ki (Cannabinoid receptor 2 [2]) of the same molecule?
The Ki was 19.8 nM.

`CC1CCC(NC(=O)c2c(O)c3cccnc3n(CCCO)c2=O)CC1` (configuration not stated) was tested. Which Ratio Ki (Homo sapiens) did it give?
The Ratio Ki was over 4.6.

And the Ki (Cannabinoid receptor 1 [1])?
Its Ki is over 10000 nM.

What about the Ki (Cannabinoid receptor 2 [2]) of the same molecule?
Its Ki is 215 nM.

With `CCCC(C)(C)c1ccc2c(c1)OC(C)(C)[C@@H]1CC=C(C)C[C@@H]21` as the molecule, how does the IC50 (LNCaP [3]) read?
Its IC50 is 11600 nM.

What does the source list for `CC1CCC(NC(=O)c2cc3ccccc3n(CCCO)c2=O)CC1` (configuration not stated)?
Ratio Ki (Homo sapiens): 104; Ki (Cannabinoid receptor 1 [1]): 3760 nM; Ki (Cannabinoid receptor 2 [2]): 36 nM

What does the source list for `CC1CCC(NC(=O)c2cc3ccccc3n(Cc3ccc(F)cc3)c2=O)CC1` (configuration not stated)?
Ratio Ki (Homo sapiens): 27.7; Ki (Cannabinoid receptor 1 [1]): 19.4 nM; Ki (Cannabinoid receptor 2 [2]): 0.75 nM

With `CC1CCC(NC(=O)c2cc3ccccc3n(CCN3CCOCC3)c2=O)CC1` (configuration not stated) as the molecule, how does the Ratio Ki (Homo sapiens) read?
The Ratio Ki was 190.

And the Ki (Cannabinoid receptor 1 [1])?
Its Ki is 800 nM.

And the Ki (Cannabinoid receptor 2 [2])?
Its Ki is 4.2 nM.

`CCCCCCC(C)(C)c1cc(O)c2c(c1)OC(C)(C)[C@@H]1CC=C(CO)C[C@@H]21` was tested. Which Emax (Cannabinoid receptor 2 [4]) did it give?
Its Emax is 290%.

Which Ratio Ki (Homo sapiens) does the source give for `CCCCn1c(=O)c(C(=O)NC2CCC(C)CC2)c(O)c2cccnc21` (configuration not stated) here?
Its Ratio Ki is 62.

What about the Ki (Cannabinoid receptor 1 [1]) of the same molecule?
Its Ki is 701 nM.

And the Ki (Cannabinoid receptor 2 [2])?
The Ki was 11.2 nM.

`CC1CCC(NC(=O)c2c(O)c3cccnc3n(Cc3ccc(F)cc3)c2=O)CC1` (configuration not stated) was tested. Which Ki (Cannabinoid receptor 1 [1]) did it give?
The Ki was 138 nM.

And the inhibition (PBMC [5])?
The inhibition was “Dose-dependent effect”.

And the IC50 (LNCaP [3])?
Its IC50 is 2080 nM.

What about the Ki (Cannabinoid receptor 2 [2]) of the same molecule?
The Ki was 0.75 nM.

And the Activity (PBMC [6])?
Its Activity is “Dose-dependent effect”.

And the Activity (PBMC [7])?
Its Activity is “Dose-dependent effect”.

And the inhibition (PBMC [8])?
The inhibition was “Active”.

What about the inhibition (PBMC [9]) of the same molecule?
Its inhibition is “Dose-dependent effect”.

And the inhibition (PBMC [10])?
The inhibition was “Dose-dependent effect”.

What about the inhibition (PBMC [11]) of the same molecule?
The inhibition was “Active”.

What about the inhibition (PBMC [12]) of the same molecule?
The inhibition was “Active”.

And the EC50 (Cannabinoid receptor 2 [4])?
The EC50 was 3.16 nM.

And the Emax (Cannabinoid receptor 2 [4])?
Its Emax is 216%.

What about the inhibition (PBMC [13]) of the same molecule?
Its inhibition is “Dose-dependent effect”.

And the inhibition (PBMC [14])?
Its inhibition is “Dose-dependent effect”.

What about the inhibition (PBMC [15]) of the same molecule?
Its inhibition is “Dose-dependent effect”.

What about the Activity [16] of the same molecule?
The Activity was “inactive”.

And the Activity (CHO)?
The Activity was “inactive”.

And the Activity (LNCaP [17])?
Its Activity is “inactive”.

And the inhibition (PBMC [18])?
The inhibition was “Active”.

And the inhibition (PBMC [19])?
Its inhibition is “Active”.

And the inhibition (PBMC [20])?
Its inhibition is “Dose-dependent effect”.

Which Ratio Ki (Homo sapiens) does the source give for `CC1CCC(NC(=O)c2c(O)c3cccnc3n(CCN3CCOCC3)c2=O)CC1` (configuration not stated) here?
The Ratio Ki was 85.

What about the Ki (Cannabinoid receptor 1 [1]) of the same molecule?
Its Ki is 630 nM.

What about the Ki (Cannabinoid receptor 2 [2]) of the same molecule?
Its Ki is 7.44 nM.

Which Ratio Ki (Homo sapiens) does the source give for `CCCn1c(=O)c(C(=O)NC2CCC(C)CC2)cc2ccccc21` (configuration not stated) here?
The Ratio Ki was 102.

What about the Ki (Cannabinoid receptor 1 [1]) of the same molecule?
The Ki was 2610 nM.

And the Ki (Cannabinoid receptor 2 [2])?
Its Ki is 25.4 nM.

What does the source list for `CCCCCn1c(=O)c(C(=O)NC2CCC(C)CC2)cc2ccccc21` (configuration not stated)?
inhibition (PBMC [21]): inactive; Ki (Cannabinoid receptor 1 [1]): 227 nM; inhibition (PBMC [22]): inactive; inhibition (PBMC [23]): Active; inhibition (PBMC [24]): Active; Activity (PBMC [25]): Active; Activity [26]: inactive; IC50 (LNCaP [3]): 3900 nM; Ki (Cannabinoid receptor 2 [2]): 1.5 nM; viability at 10 µM (PBMC [27]): 71.5%; inhibition (PBMC [28]): Active; Emax [29]: 230%; inhibition (PBMC [30]): inactive; EC50 (Cannabinoid receptor 2 [4]): 2 nM; Emax (Cannabinoid receptor 2 [4]): 280%; Activity (LNCaP [31]): inactive; Activity (CHO): inactive; EC50 (Cannabinoid receptor 1 [32]): 2510 nM; inhibition (PBMC [33]): Active
